Source: US20250214977A1, “STAT6 INHIBITORS AND USES THEREOF” (Kymera Therapeutics, Inc., priority 2024, published 2025)

System: Phosphorylation of STAT6 in human A549 cells
Assay: Phosphorylated STAT6 (pSTAT6) flow cytometry assay in human A549 cells
Assay type: cell-based
Conditions: read-out: STAT6 IL4 pSTAT6 assay in A549 cells: Average IC50
Excerpt: Example 3. Phosphorylated STAT6 (pSTAT6) Flow Cytometry Assay in Human A549 Cells
Phosphorylation of STAT6 in human A549 cells was quantitatively measured using flow cytometry technology.

Row | Molecule | IC50
1 | COc1ccccc1-c1cc(C2=CCCN(C(=O)CCn3ccnn3)C2)c(F)c2[nH]c(C(=O)N3CCN(c4cccc(OC(F)(F)F)n4)CC3)cc12 [Example I-430] | 100 to 1000 nM
2 | COc1ccccc1-c1cc(C2=CCCN(C(=O)CCn3ccnn3)C2)c(F)c2[nH]c(C(=O)N3CCN(c4cccc(C(F)(F)F)n4)CC3)cc12 [Example I-937] | 100 to 1000 nM
3 | COc1cccnc1N1CCN(C(=O)c2cc3c(-c4cccc(Cl)c4OC)cc(C4=CCCN(C(=O)CCn5ccnn5)C4)c(F)c3[nH]2)CC1 [Example I-411] | > 100000 nM
4 | CC(=O)N1CCC=C(c2cc(-c3cnc4[nH]cc(C)c4c3)c3cc(C(=O)N(C)C)[nH]c3c2F)C1 [Example I-897] | 100 to 1000 nM
5 | CCc1cc(C)ncc1-c1cc(C2=CCCN(C(=O)CCc3nccs3)C2)c(F)c2[nH]c(C(=O)N3CCN(c4nc(C)ccc4OC)CC3)cc12 [Example I-526] | < 100 nM
6 | CN(C)C(=O)c1cc2cc(C3=CCCN(C(=O)CCc4nncs4)C3)ccc2o1 [Example I-824] | 100 to 1000 nM
7 | CCc1ccncc1-c1cc(C2=CCCN(C(=O)CCn3ccnn3)C2)c(F)c2[nH]c(C(=O)N3CCN(c4ccccc4OC)CC3)cc12 [Example I-471] | < 100 nM
8 | COc1cc(F)cnc1N1CCN(C(=O)c2cc3c(-c4cc(O)cc5ccccc45)cc(C4=CCCN(C(=O)CCn5ccnn5)C4)c(F)c3[nH]2)CC1 [Example I-659] | < 100 nM
9 | Cc1ccc(-c2cc(C3=CCCN(C(=O)CCn4ccnn4)C3)cc3cc(C(=O)N(C)C)oc23)cn1 [Example I-1084] | < 100 nM
10 | (S)-5-(1-(2-formyl-1,2,3,4-tetrahydroisoquinoline-3-carbonyl)-1,2,5,6-tetrahydropyridin-3-yl)-7-(2-methoxyphenyl)-N,N-dimethylbenzofuran-2-carboxamide [Example I-805] | > 100000 nM
11 | COc1ccccc1-c1cc(C2=CCCN(C(=O)CCn3ccnn3)C2)c(F)c2[nH]c(C(=O)N3CCN(S(C)(=O)=O)CC3)cc12 [Example I-989] | < 100 nM
12 | COc1ccccc1-c1cc(C2=CCCN(C(=O)CCn3ccnn3)C2)c(F)c2[nH]c(C(=O)N3CCN(c4cc(C(F)(F)F)ccn4)CC3)cc12 [Example I-935] | < 100 nM
13 | COc1ccccc1-c1cc(C2=CCCN(C(C)=O)C2)c(F)c2sc(C(=O)N(C)C)cc12 [Example I-552] | 100 to 1000 nM
14 | COc1cccnc1N1CCN(C(=O)c2cc3ccc(C4=CCCN(C(C)=O)C4)c(F)c3[nH]2)CC1 [Example I-902] | 1000 to 10000 nM
15 | COc1ccccc1-c1cc([C@H]2CCCN(C(=O)CCn3ccnn3)C2)c(F)c2[nH]c(C(=O)N(C)C)cc12 [Example I-1195] | > 100000 nM
16 | CC(=O)N1CCC=C(c2cc(-c3ccc(C)cc3O)c3cc(C(=O)N(C)C)[nH]c3c2F)C1 [Example I-886] | 100 to 1000 nM
17 | CN(C)C(=O)c1cc2cc(C3=CCCN(C(=O)CCn4ccnn4)C3)cc(NCc3ccc(C(F)(F)F)nc3)c2o1 [Example I-893] | < 100 nM

Row | Molecule | IC50
18 | COc1ccccc1-c1cc(C2=CCCN(C(=O)CCn3ccnn3)C2)c(F)c2[nH]c(C(=O)N3CCN(c4cccc(OC(F)F)c4)CC3)cc12 [Example I-427] | < 100 nM
19 | COc1ccccc1-c1cc(C2=CCCN(C(=O)CCn3ccnn3)C2)c(F)c2[nH]c(C(=O)N3CCN(c4ncc(C#N)cc4OC)CC3)cc12 [Example I-940] | < 100 nM
20 | CCc1cc(C)ncc1-c1cc(C2=CCCN(C(=O)CCn3cccn3)C2)c(F)c2[nH]c(C(=O)N3Cc4cnn(CC)c4C3)cc12 [Example I-537] | < 100 nM
21 | CCc1nc(C)ccc1-c1cc(C(=O)N2CCN(c3nc(C)c(F)cc3OC)CC2)cc2cc(C3=CCCN(C(=O)CCn4ccnn4)C3)n(CC3CC3)c12 [Example I-546] | > 100000 nM
22 | COc1cc(Cl)cnc1N1CCN(C(=O)c2cc3c(-c4cccnc4OC)cc(C4=CCCN(C(=O)CCn5ccnn5)C4)c(F)c3[nH]2)CC1 [Example I-460] | < 100 nM
23 | COc1ccccc1-c1cc(C2=CCCN(C(=O)CCn3ccnn3)C2)c(F)c2[nH]c(C(=O)N3CCN(c4ccc(C(F)(F)F)cc4F)CC3)cc12 [Example I-932] | 100 to 1000 nM
24 | COc1ccccc1-c1cc(C2=CCCN(C(=O)CCn3ccnn3)C2)c(F)c2[nH]c(C(=O)N3CCN(c4cnc5ncccn45)CC3)cc12 [Example I-1017] | < 100 nM
25 | CCc1ccncc1-c1cc(C(=O)N2Cc3cnn(C)c3C2)cc2cc(C3=CCCN(C(=O)CCn4ccnn4)C3)n(CC3CC3)c12 [Example I-727] | < 100 nM
26 | CNc1ccc(-c2cc(C3=CCCN(C(=O)CCn4ccnn4)C3)cc3[nH]c(C(=O)N(C)C)cc23)c(Cl)c1 [Example I-1050] | < 100 nM
27 | COCOc1cc(F)ccc1-c1cc(C2=CCCN(C(=O)CCn3ccnn3)C2)c(F)c2[nH]c(C(=O)N3CCN(c4ncc(F)cc4OC)CC3)cc12 [Example I-670] | < 100 nM
28 | CN(C)C(=O)c1cc2cc(C3=CCCN(C(=O)CCn4ccnn4)C3)cc(NC[C@@H]3CCC(=O)N3C)c2o1 [Example I-896] | 100 to 1000 nM
29 | COc1ccccc1-c1cc(C2=CCCN(C(=O)[C@H]3Cc4ccccc4CN3C=O)C2)cc2cc(C(=O)N(C)C)oc12 (single isomer, unassigned) [Example I-804] | 100 to 1000 nM
30 | COc1cnccc1-c1cc(C2=CCCN(C(C)=O)C2)c(F)c2[nH]c(C(=O)N3CCN(c4ncccc4OC)CC3)cc12 [Example I-408] | > 100000 nM
31 | COc1ccccc1-c1cc(C2=CCCN(C(=O)CCn3ccnn3)C2)c(F)c2[nH]c(C(=O)N3CCN(c4cc(F)c5ncccc5c4)CC3)cc12 [Example I-953] | < 100 nM
32 | COc1cc(F)cnc1N1CCN(C(=O)c2cc3c(-c4ccc(C(F)(F)F)cc4CO)cc(C4=CCCN(C(=O)CCn5ccnn5)C4)c(F)c3[nH]2)CC1 [Example I-1167] | < 100 nM
33 | 2-(3-(1-(cyclopropylmethyl)-7-(2-ethyl-6-methylpyridin-3-yl)-5-(4-(5-fluoro-3-methoxypyridin-2-yl)piperazine-1-carbonyl)-1H-indol-2-yl)-5,6-dihydropyridin-1(2H)-yl)-2-oxoacetic acid [Example I-1228] | < 100 nM
34 | COc1cc(C(F)(F)F)cnc1N1CCN(C(=O)c2cc3c(-c4cnc5ccccc5c4OC)cc(C4=CCCN(C(=O)CCn5ccnn5)C4)c(F)c3[nH]2)CC1 [Example I-446] | 1000 to 10000 nM

Other lines, results leading:

Row | IC50 | Molecule
35 | < 100 nM | CNc1ccc(-c2cc(C3=CCCN(C(=O)CCn4ccnn4)C3)c(F)c3[nH]c(C(=O)N(C)C)cc23)c(OC)c1 [Example I-1059]
36 | < 100 nM | COc1cc(F)c(F)cc1-c1cc(C2=CCCN(C(=O)CCn3ccnn3)C2)c(F)c2[nH]c(C(=O)N3CCN(C4CC4)CC3)cc12 [Example I-604]
37 | < 100 nM | COc1ccccc1-c1cc(C2=CCCN(C(=O)CCn3ccnn3)C2)c(F)c2[nH]c(C(=O)N3CCN(CC4CCCO4)CC3)cc12 (centres unmarked) [Example I-1184]
38 | < 100 nM | CC(=O)N1CCN(c2cc(C3=CCCN(C(=O)CCn4ccnn4)C3)cc3cc(C(=O)N(C)C)oc23)CC1 [Example I-1186]
39 | < 100 nM | COc1cc(F)cnc1N1CCN(C(=O)c2cc3c(-c4ccc(C(=O)N(C)C)cc4)cc(C4=CCCN(C(=O)CCn5ccnn5)C4)c(F)c3[nH]2)CC1 [Example I-1165]
40 | < 100 nM | COc1ccccc1-c1cc(C2=CCCN(C(=O)CCn3ccnn3)C2)c(F)c2[nH]c(C(=O)N3CCN(c4cnc(SC)n5cnnc45)CC3)cc12 [Example I-910]
41 | < 100 nM | CNc1ccc(-c2cc(C3=CCCN(C(=O)CCn4ccnn4)C3)cc3cc(C(=O)N(C)C)oc23)c(OC)c1 [Example I-1056]
42 | < 100 nM | CCc1nc(C)ccc1-c1cc(C(=O)N2CCN(c3ncc(F)cc3OC)CC2)cc2cc(C3=CCCN(C(=O)CCC(=O)O)C3)n(CC3CC3)c12 [Example I-527]
43 | < 100 nM | COc1cc(F)ccc1-c1cc(C2=CCCN(C(=O)CCn3ccnn3)C2)c(F)c2[nH]c(C(=O)N3CCN(c4ccccc4OC)CC3)cc12 [Example I-598]
44 | < 100 nM | COc1ccccc1-c1cc(C2=CCCN(C(=O)CCn3cccn3)C2)c(F)c2[nH]c(C(=O)N3CCN(c4ncccc4OC4CC4)CC3)cc12 [Example I-345]
45 | < 100 nM | CN(C)C(=O)c1cc2cc(C3=CCCN(C(=O)CCn4ccnn4)C3)cc(NCC3CC(F)(F)C3)c2o1 [Example I-873]
46 | < 100 nM | COc1ccccc1-c1cc(C2=CCCN(C(=O)CCn3ccnn3)C2)c(F)c2[nH]c(C(=O)N3CCN(c4cc(C)c5ncnn5c4)CC3)cc12 [Example I-909]
47 | < 100 nM | COc1ccccc1-c1cc(C2=CCCN(C(=O)CCn3ccnn3)C2)c(F)c2[nH]c(C(=O)N3CCN(c4ncccc4OC(C)C)CC3)cc12 [Example I-332]
48 | < 100 nM | COc1ccccc1-c1cc(C2=CCCN(C(=O)CCn3ccnn3)C2)c(F)c2[nH]c(C(=O)N3CCN(c4nccc(-c5cn(C)c6ccccc56)n4)CC3)cc12 [Example I-906]
49 | < 100 nM | COc1ccncc1-c1cc(C2=CCCN(C(=O)CCn3ccnn3)C2)c(F)c2[nH]c(C(=O)N3CC=C(c4ccc(F)c(OC)n4)CC3)cc12 [Example I-434]
50 | < 100 nM | COc1ccccc1-c1cc(C2=CCCN(C(=O)CCn3ccnn3)C2)c(F)c2[nH]c(C(=O)N3CCN(c4nccc5cnccc45)CC3)cc12 [Example I-362]
51 | < 100 nM | COc1ccccc1-c1cc(C2=CCCN(C(=O)CCn3ccnn3)C2)c(F)c2[nH]c(C(=O)N3CCCC3)cc12 [Example I-842]
52 | < 100 nM | CCc1nc(C)ncc1-c1cc(C2=CCCN(C(=O)CCn3ccnn3)C2)c(F)c2[nH]c(C(=O)N3Cc4cnn(CC)c4C3)cc12 [Example I-764]
53 | < 100 nM | COc1ccccc1-c1cc(C2=CCCN(C(=O)CCn3ccnn3)C2)c(F)c2[nH]c(C(=O)N3CCN(c4ncc(C)cc4OC)CC3)cc12 [Example I-939]
54 | < 100 nM | COc1ccccc1-c1cc(C2=CCCN(C(=O)CCn3ccnn3)C2)c(F)c2[nH]c(C(=O)N3CCC(c4ccccc4OC)CC3)cc12 [Example I-422]
55 | < 100 nM | COc1ccccc1-c1cc(C2=CCCN(C(=O)CCn3ccnn3)C2)c(F)c2[nH]c(C(=O)N3CCN(c4ccccc4OC)CC3)cc12 [Example I-349]
56 | < 100 nM | CCc1cc(C)ncc1-c1cc(C2=CCCN(C(=O)CCn3cccn3)C2)c(F)c2[nH]c(C(=O)N3CCN(c4nc(C)ccc4OC)CC3)cc12 [Example I-514]
